From the supplement of paper PMC10307832

Columns and labels:
Test in all cases: relative viability (nuclei count vs DMSO), 5 days (fraction); higher = more cells survive
[1] = tested on: NCI-H1975
How it was run: (§1)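 Dosing by pin tool came one day after lung cancer cell lines were seeded in 1536-well plates, using either one drug or a fixed anchor-drug dose plus five library-drug doses (not always all listed) in √10 steps. After 5 days, nuclei were counted on 4× images. Relative viability is treated-well nuclei count divided by vehicle-well nuclei count, and values are medians of duplicate plates.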

[2] = tested on: NCI-H1792
How it was run: as §1

[3] = tested on: COR-L 105
How it was run: as §1

[4] = tested on: NCI-H1437
How it was run: as §1

[5] = tested on: SW 1573
How it was run: as §1

[6] = tested on: NCI-H1355
How it was run: as §1

[7] = tested on: NCI-H727
How it was run: as §1

[8] = tested on: NCI-H1915
How it was run: as §1

[9] = tested on: LCLC-103H
How it was run: as §1

[10] = tested on: NCI-H2228
How it was run: as §1

[11] = tested on: NCI-H2009
How it was run: as §1

[12] = tested on: SK-LU-1
How it was run: as §1

[13] = tested on: HOP-62
How it was run: as §1

[14] = tested on: CAL-12T
How it was run: as §1

[15] = tested on: HCC-366
How it was run: as §1

[16] = tested on: NCI-H23
How it was run: as §1

[17] = tested on: A-427
How it was run: as §1

[18] = tested on: NCI-H1395
How it was run: as §1

[19] = tested on: HARA
How it was run: as §1

[20] = tested on: NCI-H1755
How it was run: as §1

[21] = tested on: NCI-H460
How it was run: as §1

[22] = tested on: EMC-BAC-2
How it was run: as §1

[23] = tested on: HCC-827
How it was run: as §1

SMILES: O=C(O)c1ccc(-c2c[nH]c3ncc(-c4ccccc4)cc23)cc1C1CCCC1 + CS(=O)(=O)N1CCN(Cc2cc3nc(-c4cccc5[nH]ncc45)nc(N4CCOCC4)c3s2)CC1 [Pictilisib] (partner 1 µM)
- relative viability ([1]; first compound 0.04 µM): 0.256
- relative viability ([1]; first compound 0.1265 µM): 0.297
- relative viability ([1]; first compound 0.4 µM): 0.309
- relative viability ([1]; first compound 1.265 µM): 0.271
- relative viability ([2]; first compound 0.04 µM): 0.287
- relative viability ([2]; first compound 0.1265 µM): 0.311
- relative viability ([2]; first compound 0.4 µM): 0.329
- relative viability ([2]; first compound 1.265 µM): 0.27
- relative viability ([3]; first compound 0.04 µM): 0.435
- relative viability ([3]; first compound 0.1265 µM): 0.429
- relative viability ([3]; first compound 0.4 µM): 0.497
- relative viability ([3]; first compound 1.265 µM): 0.388
- relative viability ([4]; first compound 0.04 µM): 0.489
- relative viability ([4]; first compound 0.1265 µM): 0.446
- relative viability ([4]; first compound 0.4 µM): 0.371
- relative viability ([4]; first compound 1.265 µM): 0.263
- relative viability ([5]; first compound 0.04 µM): 0.638
- relative viability ([5]; first compound 0.1265 µM): 0.621
- relative viability ([5]; first compound 0.4 µM): 0.512
- relative viability ([5]; first compound 1.265 µM): 0.317
- relative viability ([6]; first compound 0.04 µM): 0.481
- relative viability ([6]; first compound 0.1265 µM): 0.514
- relative viability ([6]; first compound 0.4 µM): 0.4
- relative viability ([6]; first compound 1.265 µM): 0.35
- relative viability ([7]; first compound 0.04 µM): 0.363
- relative viability ([7]; first compound 0.1265 µM): 0.403
- relative viability ([7]; first compound 0.4 µM): 0.654
- relative viability ([7]; first compound 1.265 µM): 0.354
- relative viability ([8]; first compound 0.04 µM): 0.992
- relative viability ([8]; first compound 0.1265 µM): 0.876
- relative viability ([8]; first compound 0.4 µM): 0.94
- relative viability ([8]; first compound 1.265 µM): 0.803
- relative viability ([9]; first compound 0.04 µM): 0.631
- relative viability ([9]; first compound 0.1265 µM): 0.693
- relative viability ([9]; first compound 0.4 µM): 0.57
- relative viability ([9]; first compound 1.265 µM): 0.632
- relative viability ([10]; first compound 0.04 µM): 0.58
- relative viability ([10]; first compound 0.1265 µM): 0.549
- relative viability ([10]; first compound 0.4 µM): 0.26
- relative viability ([10]; first compound 1.265 µM): 0.274
- relative viability ([11]; first compound 0.04 µM): 0.793
- relative viability ([11]; first compound 0.1265 µM): 0.836
- relative viability ([11]; first compound 0.4 µM): 0.788
- relative viability ([11]; first compound 1.265 µM): 0.586
- relative viability ([12]; first compound 0.04 µM): 0.559
- relative viability ([12]; first compound 0.1265 µM): 0.604
- relative viability ([12]; first compound 0.4 µM): 0.538
- relative viability ([12]; first compound 1.265 µM): 0.418
- relative viability ([13]; first compound 0.04 µM): 1.05
- relative viability ([13]; first compound 0.1265 µM): 0.884
- relative viability ([13]; first compound 0.4 µM): 0.686
- relative viability ([13]; first compound 1.265 µM): 0.66
- relative viability ([14]; first compound 0.04 µM): 0.478
- relative viability ([14]; first compound 0.1265 µM): 0.696
- relative viability ([14]; first compound 0.4 µM): 0.494
- relative viability ([14]; first compound 1.265 µM): 0.448
- relative viability ([15]; first compound 0.04 µM): 0.136
- relative viability ([15]; first compound 0.1265 µM): 0.192
- relative viability ([15]; first compound 0.4 µM): 0.138
- relative viability ([15]; first compound 1.265 µM): 0.153
- relative viability ([16]; first compound 0.04 µM): 0.532
- relative viability ([16]; first compound 0.1265 µM): 0.519
- relative viability ([16]; first compound 0.4 µM): 0.43
- relative viability ([16]; first compound 1.265 µM): 0.428
- relative viability ([17]; first compound 0.04 µM): 0.836
- relative viability ([17]; first compound 0.1265 µM): 0.738
- relative viability ([17]; first compound 0.4 µM): 0.723
- relative viability ([17]; first compound 1.265 µM): 0.738
- relative viability ([18]; first compound 0.04 µM): 0.769
- relative viability ([18]; first compound 0.1265 µM): 0.691
- relative viability ([18]; first compound 0.4 µM): 0.625
- relative viability ([18]; first compound 1.265 µM): 0.555
- relative viability ([19]; first compound 0.04 µM): 0.31
- relative viability ([19]; first compound 0.1265 µM): 0.604
- relative viability ([19]; first compound 0.4 µM): 0.449
- relative viability ([19]; first compound 1.265 µM): 0.545
- relative viability ([20]; first compound 0.04 µM): 0.381
- relative viability ([20]; first compound 0.1265 µM): 0.603
- relative viability ([20]; first compound 0.4 µM): 0.45
- relative viability ([20]; first compound 1.265 µM): 0.442
- relative viability ([21]; first compound 0.04 µM): 0.409
- relative viability ([21]; first compound 0.1265 µM): 0.574
- relative viability ([21]; first compound 0.4 µM): 0.38
- relative viability ([21]; first compound 1.265 µM): 0.365
- relative viability ([22]; first compound 0.04 µM): 0.555
- relative viability ([22]; first compound 0.1265 µM): 0.557
- relative viability ([22]; first compound 0.4 µM): 0.537
- relative viability ([22]; first compound 1.265 µM): 0.554
- relative viability ([23]; first compound 0.04 µM): 1.12
- relative viability ([23]; first compound 0.1265 µM): 1.12
- relative viability ([23]; first compound 0.4 µM): 0.965
- relative viability ([23]; first compound 1.265 µM): 0.859

SMILES: Oc1nc(-c2ccc(C(F)(F)F)cc2)nc2c1CSCC2 [XAV939] + CS(=O)(=O)CCNCc1ccc(-c2ccc3ncnc(Nc4ccc(OCc5cccc(F)c5)c(Cl)c4)c3c2)o1 [Lapatinib] (partner 2 µM)
- relative viability ([1]; first compound 0.08 µM): 0.733
- relative viability ([1]; first compound 0.253 µM): 0.655
- relative viability ([1]; first compound 0.8 µM): 0.753
- relative viability ([1]; first compound 2.53 µM): 0.646
- relative viability ([2]; first compound 0.08 µM): 1.14
- relative viability ([2]; first compound 0.253 µM): 0.523
- relative viability ([2]; first compound 0.8 µM): 0.805
- relative viability ([2]; first compound 2.53 µM): 0.806
- relative viability ([3]; first compound 0.08 µM): 0.426
- relative viability ([3]; first compound 0.253 µM): 0.347
- relative viability ([3]; first compound 0.8 µM): 0.37
- relative viability ([3]; first compound 2.53 µM): 0.301
- relative viability ([4]; first compound 0.08 µM): 0.938
- relative viability ([4]; first compound 0.253 µM): 0.709
- relative viability ([4]; first compound 0.8 µM): 0.772
- relative viability ([4]; first compound 2.53 µM): 0.639
- relative viability ([5]; first compound 0.08 µM): 1.11
- relative viability ([5]; first compound 0.253 µM): 0.908
- relative viability ([5]; first compound 0.8 µM): 1.07
- relative viability ([5]; first compound 2.53 µM): 0.983
- relative viability ([6]; first compound 0.08 µM): 1.02
- relative viability ([6]; first compound 0.253 µM): 0.857
- relative viability ([6]; first compound 0.8 µM): 0.875
- relative viability ([6]; first compound 2.53 µM): 0.729
- relative viability ([7]; first compound 0.08 µM): 1.14
- relative viability ([7]; first compound 0.253 µM): 0.589
- relative viability ([7]; first compound 0.8 µM): 0.759
- relative viability ([7]; first compound 2.53 µM): 0.877
- relative viability ([8]; first compound 0.08 µM): 1.13
- relative viability ([8]; first compound 0.253 µM): 0.934
- relative viability ([8]; first compound 0.8 µM): 1.05
- relative viability ([8]; first compound 2.53 µM): 0.993
- relative viability ([10]; first compound 0.08 µM): 1.03
- relative viability ([10]; first compound 0.253 µM): 0.922
- relative viability ([10]; first compound 0.8 µM): 0.848
- relative viability ([10]; first compound 2.53 µM): 0.928
- relative viability ([11]; first compound 0.08 µM): 1.08
- relative viability ([11]; first compound 0.253 µM): 0.819
- relative viability ([11]; first compound 0.8 µM): 0.842
- relative viability ([11]; first compound 2.53 µM): 0.771
- relative viability ([12]; first compound 0.08 µM): 0.858
- relative viability ([12]; first compound 0.253 µM): 0.845
- relative viability ([12]; first compound 0.8 µM): 0.863
- relative viability ([12]; first compound 2.53 µM): 0.906
- relative viability ([13]; first compound 0.08 µM): 1.1
- relative viability ([13]; first compound 0.253 µM): 0.963
- relative viability ([13]; first compound 0.8 µM): 0.918
- relative viability ([13]; first compound 2.53 µM): 0.735
- relative viability ([14]; first compound 0.08 µM): 0.729
- relative viability ([14]; first compound 0.253 µM): 0.664
- relative viability ([14]; first compound 0.8 µM): 0.525
- relative viability ([14]; first compound 2.53 µM): 0.426
- relative viability ([15]; first compound 0.08 µM): 1.23
- relative viability ([15]; first compound 0.253 µM): 0.861
- relative viability ([15]; first compound 0.8 µM): 1.01
- relative viability ([15]; first compound 2.53 µM): 0.96
- relative viability ([16]; first compound 0.08 µM): 1.17
- relative viability ([16]; first compound 0.253 µM): 1.01
- relative viability ([16]; first compound 0.8 µM): 0.966
- relative viability ([16]; first compound 2.53 µM): 0.932
- relative viability ([17]; first compound 0.08 µM): 1.09
- relative viability ([17]; first compound 0.253 µM): 1.02
- relative viability ([17]; first compound 0.8 µM): 1.11
- relative viability ([17]; first compound 2.53 µM): 1.03
- relative viability ([18]; first compound 0.08 µM): 0.976
- relative viability ([18]; first compound 0.253 µM): 0.919
- relative viability ([18]; first compound 0.8 µM): 0.985
- relative viability ([18]; first compound 2.53 µM): 1.01
- relative viability ([19]; first compound 0.08 µM): 0.73
- relative viability ([19]; first compound 0.253 µM): 0.419
- relative viability ([19]; first compound 0.8 µM): 0.402
- relative viability ([19]; first compound 2.53 µM): 0.606
- relative viability ([20]; first compound 0.08 µM): 0.92
- relative viability ([20]; first compound 0.253 µM): 0.87
- relative viability ([20]; first compound 0.8 µM): 0.896
- relative viability ([20]; first compound 2.53 µM): 0.955
- relative viability ([21]; first compound 0.08 µM): 1.38
- relative viability ([21]; first compound 0.253 µM): 0.723
- relative viability ([21]; first compound 0.8 µM): 0.91
- relative viability ([21]; first compound 2.53 µM): 0.937
- relative viability ([22]; first compound 0.08 µM): 1.01
- relative viability ([22]; first compound 0.253 µM): 0.821
- relative viability ([22]; first compound 0.8 µM): 0.837
- relative viability ([22]; first compound 2.53 µM): 0.681
- relative viability ([23]; first compound 0.08 µM): 0.194
- relative viability ([23]; first compound 0.253 µM): 0.178
- relative viability ([23]; first compound 0.8 µM): 0.238
- relative viability ([23]; first compound 2.53 µM): 0.187
